Values joined by “and” are separate entries in the source; they are usually repeats but may differ in a detail not shown here. Equal entries are not always repeated. Active and inactive are the calls of the source. The rule behind the calls is not given here.
Key:
[1] = Induction of apoptosis in human CL1-5 cells assessed as late apoptotic cells at 100 nM incubated for 24 hrs by AnnexinV/FITC and propidium iodide staining based flow cytometry analysis (reference value: 2.30%); assay type: functional
[2] = Induction of cell cycle arrest in human CL1-5 cells assessed as S phase at 100 nM incubated for 24 hrs by propidium iodide staining based flow cytometry analysis (reference value: 16.85%); assay type: functional
[3] = Induction of autophagy in human CL1-5 cells assessed as fold decrease in p62 expression level at 100 nM incubated for 24 hrs by Western blot analysis relative to control; assay type: functional
[4] = Induction of autophagy in human CL1-5 cells assessed as fold increase in Beclin 1 expression level at 100 nM incubated for 24 hrs by Western blot analysis relative to control; assay type: functional
[5] = Induction of autophagy in human CL1-5 cells assessed as proportion of cells with degradative autophagic compartment at 100 nM incubated for 24 hrs by acridine orange staining based flow cytometry analysis (reference value: 0.34%); assay type: functional
[6] = Induction of autophagy in human CL1-5 cells assessed as fold increase in Atg5 expression level at 100 nM incubated for 24 hrs by Western blot analysis relative to control; assay type: functional
[7] = Induction of cell cycle arrest in human CL1-5 cells assessed as subG1 phase at 100 nM incubated for 24 hrs by propidium iodide staining based flow cytometry analysis (reference value: 2.28%); assay type: functional
[8] = Induction of autophagy in human CL1-5 cells assessed as fold increase in mTOR expression level at 100 nM incubated for 24 hrs by Western blot analysis relative to control; assay type: functional
[9] = Induction of cell cycle arrest in human CL1-5 cells assessed as G2/M phase at 100 nM incubated for 24 hrs by propidium iodide staining based flow cytometry analysis (reference value: 18.04%); assay type: functional
[10] = Induction of apoptosis in human CL1-5 cells assessed as necrotic cells at 100 nM incubated for 24 hrs by AnnexinV/FITC and propidium iodide staining based flow cytometry analysis (reference value: 0.285%); assay type: functional
[11] = Induction of cell cycle arrest in human CL1-5 cells assessed as G0/G1 phase at 100 nM incubated for 24 hrs by propidium iodide staining based flow cytometry analysis (reference value: 62.2%); assay type: functional
[12] = Cytotoxicity against human CL1-5 cells assessed as reduction in cell viability incubated for 24 hrs by MTT assay; assay type: functional, cell-based; settings: CL1-5, 24 h
[13] = Induction of apoptosis in human CL1-5 cells assessed as viable cells at 100 nM incubated for 24 hrs by AnnexinV/FITC and propidium iodide staining based flow cytometry analysis (reference value: 94.8 %); assay type: functional; settings: read-out: Activity
[14] = Induction of apoptosis in human CL1-5 cells assessed as early apoptotic cells at 100 nM incubated for 24 hrs by AnnexinV/FITC and propidium iodide staining based flow cytometry analysis (reference value: 2.65%); assay type: functional
[15] = Induction of autophagy in human CL1-5 cells assessed as fold increase in Atg7 expression level at 100 nM incubated for 24 hrs by Western blot analysis relative to control; assay type: functional
[16] = Induction of autophagy in human CL1-5 cells assessed as fold increase in LC3-II expression level at 100 nM incubated for 24 hrs by Western blot analysis relative to control; assay type: functional
[17] = Induction of autophagy in human CL1-5 cells assessed as fold change in p62 expression level at 100 nM incubated for 24 hrs in presence of early-stage autophagy inhibitor, 3-MA by Western blot analysis relative to control; assay type: functional
[18] = Induction of autophagy in human CL1-5 cells assessed as fold change in LC3-I expression level at 100 nM incubated for 24 hrs by Western blot analysis relative to control; assay type: functional
CL1-5 [19] = assay: Induction of autophagy in human CL1-5 cells assessed as LC3-GFP punta formation at 100 nM incubated for 24 hrs by confocal microscopic analysis; assay type: functional, cell-based
[20] = Induction of autophagy in human CL1-5 cells assessed as fold decrease in phosphorylated mTOR expression level at 100 nM incubated for 24 hrs by Western blot analysis relative to control; assay type: functional
[21] = Induction of autophagy in human CL1-5 cells assessed as fold change in LC3-I expression level at 50 nM incubated for 24 hrs by Western blot analysis relative to control; assay type: functional
[22] = Induction of autophagy in human CL1-5 cells assessed as fold increase in mTOR expression level at 50 nM incubated for 24 hrs by Western blot analysis relative to control; assay type: functional
CL1-5 [23] = assay: Induction of autophagy in human CL1-5 cells assessed as LC3-GFP punta formation at 50 nM incubated for 24 hrs by confocal microscopic analysis; assay type: functional, cell-based
[24] = Induction of autophagy in human CL1-5 cells assessed as fold increase in Beclin 1 expression level at 50 nM incubated for 24 hrs by Western blot analysis relative to control; assay type: functional
[25] = Induction of autophagy in human CL1-5 cells assessed as fold decrease in p62 expression level at 50 nM incubated for 24 hrs by Western blot analysis relative to control; assay type: functional
[26] = Induction of autophagy in human CL1-5 cells assessed as fold increase in LC3-II expression level at 50 nM incubated for 24 hrs by Western blot analysis relative to control; assay type: functional
[27] = Induction of autophagy in human CL1-5 cells assessed as fold increase in Atg7 expression level at 50 nM incubated for 24 hrs by Western blot analysis relative to control; assay type: functional
[28] = Induction of autophagy in human CL1-5 cells assessed as fold increase in Atg5 expression level at 50 nM incubated for 24 hrs by Western blot analysis relative to control; assay type: functional
[29] = Induction of autophagy in human CL1-5 cells assessed as fold decrease in phosphorylated mTOR expression level at 50 nM incubated for 24 hrs by Western blot analysis relative to control; assay type: functional

Structure (SMILES) | Activity [1] [%] | Activity [2] [%] | fold change (FC) [3] | fold change (FC) [4] | Activity [5] [%] | fold change (FC) [6] | Activity [7] [%] | fold change (FC) [8] | Activity [9] [%] | Activity [10] [%] | Activity [11] [%] | IC50 [12] | viability at 0.1 µM [13] [%] | Activity [14] [%] | fold change (FC) [15] | fold change (FC) [16] | fold change (FC) [17] | fold change (FC) [18] | Activity (CL1-5 [19]) | fold change (FC) [20] | further results
C[C@H]1C[C@H](O)[C@H](O)[C@H](O[C@H]2CC[C@]3(C=O)[C@H]4[C@H](O)C(=O)[C@]5(C)[C@@H](c6ccc(=O)oc6)CC[C@]5(O)[C@@H]4CC[C@]3(O)C2)O1 | 5.52 | 24.94 | 0.4 | 12.86 | 14.45 | 2.77 | 2.14 | 1.1 | 28.04 | 0.91 | 43.83 | 0.0523 µg/mL and 90.8 nM | 88.8 | 4.72 | 1.76 | 2.55 | 0.56 | 0.93 | Active | 0.08 | 
C[C@@]12O[C@H]3C[C@@H](O1)[C@]1(C=O)[C@H]4[C@H](O)C(=O)[C@]5(C)[C@@H](c6ccc(=O)oc6)CC[C@]5(O)[C@@H]4CC[C@@]1(C3)O2 | 5.88 | 13.2 | 0.59 | 3.2 | 11.35 | 2.01 | 2.25 | 1.23 | 23.26 | 1.3 | 60.71 | 0.0767 µg/mL and 162 nM | 88.6 | 4.19 | 1.18 | 2.36 | 1.02 | 1.03 | inactive | 0.58 | 
CC(=O)O[C@H]1C[C@H](C)O[C@@H](O[C@H]2CC[C@]3(C=O)[C@H]4[C@H](O)C(=O)[C@]5(C)[C@@H](c6ccc(=O)oc6)CC[C@]5(O)[C@@H]4CC[C@]3(O)C2)[C@H]1O | 4.93 | 13.21 | 0.42 | 10.47 | 12.29 | 1.51 | 1.81 | 1.28 | 23.65 | 0.658 | 60.1 | 0.0706 µg/mL and 114 nM | 90.9 | 3.53 | 1.18 | 1.84 | 1.19 | 0.69 | Active | 0.31 | 
CC(=O)O[C@H]1C(=O)[C@@]2(C)[C@H]([C@H](OC(=O)c3ccccc3)[C@]3(O)C[C@H](OC(=O)[C@H](O)[C@@H](NC(=O)c4ccccc4)c4ccccc4)C(C)=C1C3(C)C)[C@]1(OC(C)=O)CO[C@@H]1C[C@@H]2O [PACLITAXEL] |  |  |  |  |  |  |  |  |  | 2.31 |  |  | 72 | 18.6 |  |  |  |  |  |  | 
CO[C@H]1C[C@@H]2CC[C@@H](C)[C@@](O)(O2)C(=O)C(=O)N2CCCC[C@H]2C(=O)O[C@H]([C@H](C)C[C@@H]2CC[C@@H](O)[C@H](OC)C2)CC(=O)[C@H](C)/C=C(\C)[C@@H](O)[C@@H](OC)C(=O)[C@H](C)C[C@H](C)/C=C/C=C/C=C/1C [SIROLIMUS] |  |  |  |  |  |  |  |  |  |  |  |  |  |  |  |  |  |  |  |  | fold change (FC) [21]: 1.69; fold change (FC) [22]: 1.14; Activity (CL1-5 [23]): Active; fold change (FC) [24]: 16.57; fold change (FC) [25]: 0.79; fold change (FC) [26]: 1.3; fold change (FC) [27]: 1.26; fold change (FC) [28]: 2.17; fold change (FC) [29]: 0.26
